Row | Compound | logP
1 | CC(C)(C)N(NC(=O)c1ccccc1)C(=O)c1cc(F)c(F)c(F)c1F | 3.44
2 | COc1ccc(C(=O)N(NC(=O)c2ccccc2)C(C)(C)C)cc1OC | 2.09
3 | CC(C)(C)N(NC(=O)c1ccccc1)C(=O)c1ccc(Cl)cc1Cl | 3.55
4 | CC(C)(C)N(NC(=O)c1ccccc1)C(=O)c1cccc(Cl)c1Cl | 3.41
5 | COc1ccccc1C(=O)N(NC(=O)c1ccccc1)C(C)(C)C | 2.04
6 | Cc1ccc(C(=O)N(NC(=O)c2ccccc2)C(C)(C)C)cc1 | 2.99
7 | CC(C)(C)N(NC(=O)c1ccccc1)C(=O)c1ccc(F)cc1 | 2.85
8 | CC(C)(C)N(NC(=O)c1ccccc1)C(=O)c1ccc(I)cc1 | 3.78
9 | CC(C)(C)N(NC(=O)c1ccccc1)C(=O)c1ccc(Cl)cc1 | 3.42
10 | CC(C)(C)N(NC(=O)c1cccc(Cl)c1)C(=O)c1ccccc1Cl | 3.49
11 | CC(C)(C)N(NC(=O)c1ccccc1)C(=O)c1cccc(C(F)(F)F)c1 | 3.61
12 | CC(C)(C)N(NC(=O)c1ccccc1)C(=O)c1ccccc1I | 2.83
13 | CC(C)(C)N(NC(=O)c1ccccc1)C(=O)c1cccc([N+](=O)[O-])c1 | 2.73
14 | CC(C)(C)N(NC(=O)c1ccccc1)C(=O)c1cccc(F)c1 | 2.78
15 | CC(C)(C)N(NC(=O)c1ccccc1)C(=O)c1c(Cl)cccc1Cl | 2.56
16 | CC(C)(C)N(NC(=O)c1ccccc1)C(=O)c1ccc(Cl)c(Cl)c1 | 4.25
17 | CC(C)(C)N(NC(=O)c1ccccc1)C(=O)c1c(F)c(F)c(F)c(F)c1F | 3.25
18 | Cc1cccc(C(=O)N(NC(=O)c2ccccc2)C(C)(C)C)c1 | 2.79
19 | CSc1ccccc1C(=O)N(NC(=O)c1ccccc1)C(C)(C)C | 2.6
20 | CC(C)(C)N(NC(=O)c1ccccc1)C(=O)c1c(F)cccc1F | 2.16
21 | COc1ccc(C(=O)N(NC(=O)c2ccccc2)C(C)(C)C)cc1 | 2.56
22 | CC(C)(C)N(NC(=O)c1ccccc1)C(=O)c1ccccc1C(F)(F)F | 2.85
23 | Cc1ccccc1C(=O)N(NC(=O)c1ccccc1)C(C)(C)C | 2.75

Row | Compound | logP
24 | Cc1ccc(C(=O)N(NC(=O)c2ccccc2)C(C)(C)C)c(C)c1 | 3.18
25 | CC(C)(C)N(NC(=O)c1ccccc1)C(=O)c1ccccc1[N+](=O)[O-] | 2.27
26 | CC(C)(C)N(NC(=O)c1ccccc1)C(=O)c1ccc(C(F)(F)F)cc1 | 3.77
27 | Cc1ccc(C)c(C(=O)N(NC(=O)c2ccccc2)C(C)(C)C)c1 | 3.25
28 | CC(C)(C)N(NC(=O)c1ccccc1)C(=O)c1ccccc1 | 2.45
29 | CC(C)(C)N(NC(=O)c1ccccc1)C(=O)c1ccc([N+](=O)[O-])cc1 | 2.63
30 | COc1cccc(C(=O)N(NC(=O)c2ccccc2)C(C)(C)C)c1 | 2.56
31 | CC(C)(C)N(NC(=O)c1ccccc1Cl)C(=O)c1ccccc1Cl | 2.75
32 | Cc1c(Cl)cccc1C(=O)N(NC(=O)c1ccccc1)C(C)(C)C | 3.57
33 | CC(C)(C)N(NC(=O)c1ccccc1)C(=O)c1ccc(Br)cc1 | 3.66
34 | CC(C)(C)N(NC(=O)c1ccccc1)C(=O)c1cccc(Cl)c1 | 3.28
35 | CC(C)(C)N(NC(=O)c1ccccc1)C(=O)c1cccc(C#N)c1 | 2.34
36 | CC(C)(C)N(NC(=O)c1ccccc1)C(=O)c1cccc(Br)c1 | 3.49
37 | CCc1ccccc1C(=O)N(NC(=O)c1ccccc1)C(C)(C)C | 2.96
38 | Cc1cc(C)cc(C(=O)N(NC(=O)c2ccccc2)C(C)(C)C)c1 | 3.39
39 | Cc1cccc(C(=O)N(NC(=O)c2ccccc2)C(C)(C)C)c1C | 3.1
40 | CC(C)(C)N(NC(=O)c1ccccc1)C(=O)c1ccccc1Br | 2.69
41 | CC(C)(C)N(NC(=O)c1ccccc1)C(=O)c1c(F)cccc1Cl | 2.34
42 | CC(C)(C)N(NC(=O)c1ccccc1)C(=O)c1ccc(C#N)cc1 | 2.5
43 | Cc1ccc(C(=O)N(NC(=O)c2ccccc2)C(C)(C)C)cc1C | 3.34
44 | CC(C)(C)N(NC(=O)c1ccccc1)C(=O)c1ccccc1F | 2.38
45 | CC(C)(C)N(NC(=O)c1ccccc1)C(=O)c1cc(Cl)ccc1Cl | 3.36
46 | CC(C)(C)N(NC(=O)c1ccccc1)C(=O)c1cccc(I)c1 | 3.72

— the OPERA property sets (Mansouri et al. 2018)
